Laboratory results published in US20040058976A1, “Ophthalmic compositions for treating ocular hypertension” (priority 2003, published 2004).

Tested on: IOP in Dutch Belted Rabbits
Assay: Intraocular pressure (IOP) measurements in conscious Dutch Belted rabbits after topical instillation
Format: in vivo, rabbit
Conditions: for 30 min (Δ mm Hg) Treated Mean change in IOP / 60 min (Δmm Hg) Treated Mean change in IOP / 120 min (Δmm Hg) Treated Mean change in IOP / 180 min (Δmm Hg) Treated Mean change in IOP / 240 min (Δmm Hg) Treated Mean change in IOP / 030 min (Δmm Hg) Treated Mean change in IOP: change from Time 0, n = 24
Description: Intraocular pressure measurements (IOP) were performed in conscious adult, pigmented Dutch Belted rabbits (2-4 kg). The animals were allowed free access to standard laboratory diet and tap water, and were housed on a 12 hour light/dark cycle. Seven day rest or washout periods were allowed between assessment of the effects of topically administered treatments on IOP. In order to measure IOP, rabbits were placed in commercially available restraint boxes. Rabbits were conditioned to the restraint boxes on at least two occasions for a period of time ranging up to 6 hours before their first study. On the morning of each experiment, rabbits were placed in restraint boxes for a period of one hour before the first measurement of IOP. IOP was recorded using a pneumatic tonometer (Alcon Applanation Pneumatonograph). Eyelids were gently separated manually and the fingers of the operator were held far enough from the eye to avoid any direct pressure on the eye and surrounding tissues. The membrane of the tonometer was placed on the central part of the cornea. Each measure of IOP lasted 3-5 seconds during which time the animal was completely relaxed. In general, two measures for each eye was sufficient, the first measure being frequently discarded. The tonometer tracing represents the oscillations which correspond to ocular pulsations; the average value of the oscillations corresponded to the level of IOP in mm Hg.
The initial measurement of control IOP was done on a number of rabbits, and 12 rabbits whose control IOP were between 17-25 mm Hg (values of IOP considered to be normal) were selected for study. In each study, the rabbits were separated into two equal subgroups of 6 rabbits each with essentially equivalent control IOPs. Each study consisted of the topical administration of active test substance to one subgroup of 6 rabbits (12 eyes) and vehicle to one subgroup of 6 rabbits (12 eyes); total number of eyes tested per study being 24. In each study, one drop (volume of 50 ul) of active test substance per vehicle was instilled by means of a Hamilton syringe into both eyes of each rabbit at time ) (To). IOPs were re-measured at 30 min, 1 hour, 2 hours, 3 hours and 4 hours after instillation. Results were expressed as mean+/−SD of changes in IOP (mm Hg) from the basal To levels measured just prior to the instillation of active test agent or vehicle. The significance of the data was determined as the difference from the To value using Dunnett's t-test, as well as use of an unpaired Student's t-test for comparisons of changes in IOP between test substance and vehicle at matched time points.
Vehicles consisted of 0.5% […] peanut oil. Formulation of test agents in peanut oil was performed as follows: peanut oil formulations were prepared by dissolving 0.5%, 0.2%, 0.1%, 0.05%, 0.025% or 0.01% (wt./wt) of the test compound in peanut oil. Sonnication was used to obtain complete dissolution of the compound.

[1] = Table 2, 0.1% in peanut oil, topical
[2] = Table 5, 0.1% in peanut oil, topical
[3] = Table 3, 0.1% in peanut oil, topical

Compound: CC(C)(O)[C@H]1O[C@H]2CC[C@@]3(C)[C@@](O)(CC[C@H]4Cc5c([nH]c6ccccc56)[C@@]43C)C2=CC1=O [Paxilline]
- 30 min (Δ mm Hg) Treated Mean change in IOP (Table 2, 0.1% in peanut oil, topical, 30 min): −0.79 mm Hg
- 60 min (Δmm Hg) Treated Mean change in IOP [1]: −2.67 mm Hg
- 120 min (Δmm Hg) Treated Mean change in IOP [1]: −2.67 mm Hg
- 180 min (Δmm Hg) Treated Mean change in IOP [1]: −1.71 mm Hg
- 240 min (Δmm Hg) Treated Mean change in IOP [1]: −1.38 mm Hg

Compound: Afletrem
- 030 min (Δmm Hg) Treated Mean change in IOP (Table 5, 0.1% in peanut oil, topical, 30 min): −1.54 mm Hg
- 60 min (Δmm Hg) Treated Mean change in IOP [2]: −2.04 mm Hg
- 120 min (Δmm Hg) Treated Mean change in IOP [2]: −2.54 mm Hg
- 180 min (Δmm Hg) Treated Mean change in IOP [2]: −2.13 mm Hg
- 240 min (Δmm Hg) Treated Mean change in IOP [2]: −1.42 mm Hg

Compound: CC(C)(C)NC[C@H](O)COc1nsnc1N1CCOCC1 [Timolol Free Base, timolol]
- effect on IOP (in words) (0.5% (free base equivalent) formulated in peanut oil): significant IOP lowering
- 030 min (Δmm Hg) Treated Mean change in IOP (0.5% in peanut oil, topical 50 ul both eyes, 30 min after instillation): −2.63 mm Hg
- 60 min (Δmm Hg) Treated Mean change in IOP (0.5% in peanut oil, topical): −3.46 mm Hg
- 120 min (Δmm Hg) Treated Mean change in IOP (0.5% in peanut oil, topical): −3.96 mm Hg
- 180 min (Δmm Hg) Treated Mean change in IOP (0.5% in peanut oil, topical): −4.21 mm Hg
- 240 min (Δmm Hg) Treated Mean change in IOP (0.5% in peanut oil, topical): −2.04 mm Hg

Compound: COc1ccc2c(c1)c(CC(=O)N(C(=O)NC1CCCCC1)C1CCCCC1)c(C)n2C(=O)c1ccc(Cl)cc1 [Compound 1]
- effect on IOP (in words) (0.2% formulated in peanut oil): significant IOP lowering
- 030 min (Δmm Hg) Treated Mean change in IOP (0.2% in peanut oil, topical, 30 min): −2.0 mm Hg
- 60 min (Δmm Hg) Treated Mean change in IOP (0.2% in peanut oil, topical): −2.58 mm Hg
- 120 min (Δmm Hg) Treated Mean change in IOP (0.2% in peanut oil, topical): −2.96 mm Hg
- 180 min (Δmm Hg) Treated Mean change in IOP (0.2% in peanut oil, topical): −2.42 mm Hg
- 240 min (Δmm Hg) Treated Mean change in IOP (0.2% in peanut oil, topical): −1.58 mm Hg

Compound: C=C(C)[C@H]1O[C@H]2CC[C@@]3(C)[C@@](O)(CC[C@H]4[C@@H]5OC(C)(C)[C@H]6C[C@@H]7C(=C)Cc8c(Cl)cc9[nH]c(c5c9c8[C@@]76O)[C@@]43C)[C@@]23O[C@H]3[C@H]1O [Penitrem A]
- effect on IOP (in words) (0.1% formulated in peanut oil): significant IOP lowering
- 30 min (Δ mm Hg) Treated Mean change in IOP (Table 3, 0.1% in peanut oil, topical, 30 min): −1.33 mm Hg
- 60 min (Δmm Hg) Treated Mean change in IOP [3]: −2.08 mm Hg
- 120 min (Δmm Hg) Treated Mean change in IOP [3]: −3.91 mm Hg
- 180 min (Δmm Hg) Treated Mean change in IOP [3]: −2.96 mm Hg
- 240 min (Δmm Hg) Treated Mean change in IOP [3]: −2.46 mm Hg
